US7128895B2, “Use of bile acid derivatives conjugated with metal ion chelated complexes for the diagnostic assessment of microvascular permeability” (Bracco Imaging S.p.A., priority 2000, dated 2006)
“Also recorded” adds a separate entry of the source.

Experiment: Urinary and faecal excretion screening of an intravenously administered contrast agent
Type: in vivo
Conditions: rats
Experimental: Experimental Model for the Urinary and Faecal Excretion Screening of an Intravenously Administered Contrast Agent
The experimentation is performed on 6 rats.
The rats are individually housed in metabolic cages and urine and faeces are collected daily, for 7 days after administration. In particular faeces and urine are collected at the following time periods: 0 to 24 h,and every 24 hours up to 7 days.
The animals are killed by decapitation at 7 days post-dosing and animals blood is collected in heparinised test tubes and then centrifuged for 15 min at 3500·g to separate the plasma. After bleeding, liver, spleen, femurs and kidneys are collected and weighted to evaluate residual content of Gd in the organs. Residual gadolinium concentration in the organic samples is determined by inductively-coupled plasma atomic emission spectrometry (ICP-AES) with a Jobin-Yvon Mod 24 spectrometer
Excretion Screening of Rats Injected with B22956/1.
The screening is performed using the contrast compound as 0.25M solution. The agent in intravenously injected in 6 rats with single doses of 0.1 and 1.0 mmol·kg^−1 of animal body weight.

[1] = 0.1 mmol·kg^-1 intravenous, 7 days
[2] = 1.0 mmol·kg^-1 intravenous, 0 to 7 days
[3] = 1.0 mmol·kg^-1 intravenous, within 24 h after injection

Substance: gadolinium complex of the [3(S),5,12]-3-[[4-[bis[2-[bis(carboxymethyl)-amino]ethyl]amino]-4-carboxy-1-oxobutyl]amino]-12-hydroxycholan-24-oic acid [B22956/1]
- cumulative urinary and faecal elimination within 7 days (0.1 mmol·kg^-1 intravenous): 94 to 102 % of the ID
- average cumulative amount of gadolinium recovered in faeces [1]: 88.2±7.9 % of the injected dose (ID)
- average cumulative amount of gadolinium recovered in urine [1]: 9.0±3.7 % of the ID
- injected dose recovered in the faeces within 24 h (0.1 mmol·kg^-1 intravenous, within 24 h after injection): ~87 % of the injected dose
- cumulative urinary and faecal elimination within 7 days (1.0 mmol·kg^-1 intravenous): 89 to 92 % of the ID
- gadolinium recovered in faeces, cumulative amount [2]: 39.7±1.4 % of the ID
- gadolinium recovered in urine, cumulative amount [2]: 52.7 % of the ID
- injected dose recovered in the faeces within 24 h [3]: about 37 % of ID
- injected dose recovered in the urine within 24 h [3]: ~48 % of the injected dose
- residual Gd in plasma, liver, spleen, femurs and kidneys (7 days after 0.1 or 1.0 mmol·kg^-1): almost total absence of gadolinium residues; also recorded: very low or negligible
- residual Gd in the plasma as fraction of injected dose (7 days after administration, plasma volume taken as 40 mL/Kg): less than 0.04 % of the injected dose
- residual content of Gd in plasma (7 days, both administered doses, ICP-AES detection limit): < 0.05 μg gadolinium/mL
